Assay results taken from PMC4826033 (ACS chemical biology, 2015).

Tests used:
[1] = system: E. coli indicator strain ATCC 27856; experiment: Antibacterial activity against E. coli indicator strain; type: cell-based; conditions: data not shown
20S proteasome = conditions: cited from earlier work

## C=C(NC(=O)C(=C)NC(=O)c1csc(C2=N[C@@H]3c4csc(n4)[C@H]4NC(=O)c5csc(n5)[C@H]([C@](C)(O)[C@@H](C)O)NC(=O)[C@H]5CSC(=N5)/C(=C/C)NC(=O)[C@H]([C@@H](C)O)NC(=O)c5csc(n5)[C@]3(CC2)NC(=O)[C@H](C)NC(=O)C(=C)NC(=O)[C@H](C)NC(=O)[C@H]([C@@H](C)CC)N[C@@H]2C=Cc3c([C@H](C)O)cc(nc3[C@H]2O)C(=O)O[C@@H]4C)n1)C(N)=O [Thiostrepton A]
[1]
  antibacterial activity against E. coli: Neither thiostrepton A nor its Ala4 variants displayed any antibacterial activity
20S proteasome
  proteasome inhibitory properties (in words): active proteasome inhibitors

## C/C=C(\NC(=O)c1csc(-c2csc(-c3ccc4c(n3)-c3csc(n3)[C@H]([C@@H](C)O)NC(=O)c3csc(n3)[C@H](C(C)C)NC(=O)c3csc(n3)/C(=C/C)NC(=O)[C@H]([C@@H](C)O)NC(=O)c3csc-4n3)n2)n1)C(=O)NC[C@@H](C)O [micrococcin P1]
20S proteasome
  proteasome inhibitory properties (in words): have not yet revealed any proteasome inhibitory properties

## C=C(NC(=O)C(=C)NC(=O)c1csc(C2=NC3c4csc(n4)[C@H]4NC(=O)c5csc(n5)[C@H]([C@](C)(O)[C@@H](C)O)NC(=O)[C@H]5CSC(=N5)/C(=C/C)NC(=O)[C@H]([C@@H](C)O)NC(=O)c5csc(n5)[C@@]3(CC2)NC(=O)[C@H](C)NC(=O)C(=C)NC(=O)C(=C)NC(=O)[C@H](C(C)C)N[C@@H]2C=Cc3c([C@H](C)O)cc(nc3[C@H]2O)C(=O)O[C@@H]4C)n1)C(N)=O (some centres unmarked) [siomycin]
20S proteasome
  proteasome inhibitory properties (in words): active proteasome inhibitors

## C/C=C(\NC(=O)c1csc(-c2csc(-c3ccc4c(n3)-c3csc(n3)[C@H]([C@@H](C)O)NC(=O)c3csc(n3)[C@H](C(C)(C)O)NC(=O)c3csc(n3)/C(=C/C)NC(=O)[C@H]([C@@H](C)O)NC(=O)c3csc-4n3)n2)n1)C(=O)NC[C@@H](C)O [thiocillin I]
20S proteasome
  proteasome inhibitory properties (in words): have not yet revealed any proteasome inhibitory properties
